System: Chlorella cells
Test: Test of reproductive ability using chlorella cells
Format: cell-based
Conditions: number of chlorella cells after 10 days, relative value, no-treated LS medium = 100; start 1.00x10^5 cells per ml
Experimental: <Test of Reproductive Ability Using Chlorella Cells> Chlorella cells, which are green cells of […], were cultured with vibration in an inorganic-salt medium. Raw materials shown in Table 4 were added thereto, and then reproductive ability of chlorella cells (ability for increasing the number of the cells) was evaluated by comparison with the result obtained from a medium which was no-treated (i.e., only original nutrients of the inorganic salt medium). For the respective compositions, the test was repeated 3 times. The concentration of the cells was set to 1.00×10^5 cells (per ml) at the start of the test. […] As the inorganic salt medium, a Linsmaier-Skoog (LS) medium was used.

Compound | proliferating ability of cells
CCCO [Comparative product 4-1, Propanol, reference compound] | 96
CCCCCCO [Comparative product 4-2, Hexanol, reference compound] | 93
CCCCCCCCCCO [Comparative product 4-4, Decyl alcohol, reference compound] | 91
CCCCCCCCO [Comparative product 4-7, Octanol, reference compound] | 95
CCCCCCCCCCCCO [Invention product 4-1, Lauryl alcohol] | 115
CCCCCCCCCCCCCCO [Invention product 4-2, Myristyl alcohol] | 128
CCCCCCCCCCCCCCCCO [Invention product 4-4, Cetyl alcohol] | 148
CCCCCCCCCCCCCCCCCCO [Invention product 4-6, Stearyl alcohol] | 168
CCCCCCCC/C=C\CCCCCCCCO [Invention product 4-7, Oleyl alcohol] | 154
CCCCCCCCCCCCCCCCCCCCO [Invention product 4-8, Eicosanol] | 152
CCCCCCCCCCCCCCCCCCCCCCO [Invention product 4-9, Docosanol] | 130
CCCCCCCCCCCCCCCCCCCCCCCCO [Invention product 4-10, Tetracosanol] | 122
CCCCCCCCCCCCCCCCO [Invention product 4-15, Cetyl alcohol] | 142
CCCCCCCCCCCCCCCCCCO [Invention product 4-16, Stearyl alcohol] | 156
CCCCCCCCCCCCCCCCCCCCO [Invention product 4-17, Eicosanol] | 146

Source: patent publication US6489269B1, “Plant-activating agent” (Kao Corporation, priority 1998, dated 2002)
